The text below walks through data of US8680269B2, “Pesticidal compositions” (Dow AgroSciences, LLC., priority 2009, dated 2014).

In general, mortality refers to the share of the test organisms that died.

Format in all cases: in vivo
In experiment [1] the test system is corn earworm (CEW; Helicoverpa zea). In words: Insecticidal test for corn earworm, 128-well diet tray assay. The conditions noted are these: 144 h, 50 μg/cm2 on artificial diet, second instar larvae, six days at 25° C. The procedure, abridged: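 Second-instar H. zea larvae, three to five per well, on artificial diet surface-treated with 50 μg/cm^2 compound (90:10 acetone-water, dried), eight wells per compound. Held 6 days at 25° C, 14:10 light-dark; percent mortality averaged over wells.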

Experiment [2] deals with beet armyworm (BAW; Spodoptera exigua). In words: Insecticidal test for beet armyworm, 128-well diet tray assay. The conditions noted are these: 144 h, 50 μg/cm2 on artificial diet, second instar larvae, six days at 25° C. The procedure, abridged:
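Second-instar larvae, three to five per well, fed on artificial diet surface-treated with 50 μg/cm^2 compound (applied in 90:10 acetone-water, dried). Held 6 days at 25 °C, 14:10 light-dark; percent mortality scored per well and averaged over eight wells.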

Experiment [3] deals with green peach aphid (Myzus persicae). The experiment in a line: Insecticidal test for green peach aphid in foliar spray assay. The conditions noted are these: 72 h, 200 ppm foliar spray on cabbage seedlings, graded after three days, Abbott corrected % control, read-out: Mortality GPA 200 ppm. The procedure:
Cabbage seedlings grown in 3-inch pots, with 2-3 small (3-5 cm) true leaves, were used as test substrate. The seedlings were infested with 20-50 green peach aphids (wingless adult and nymph) one day prior to chemical application. Four pots with individual seedlings were used for each treatment. Compounds (2 mg) were dissolved in 2 mL of acetone/methanol (1:1) solvent, forming stock solutions of 1000 ppm. The stock solutions were diluted 5× with 0.025% Tween 20 in H2O to obtain the test solution at 200 ppm. A hand-held Devilbiss sprayer was used for spraying a solution to both sides of cabbage leaves until runoff. Reference plants (solvent check) were sprayed with the diluent only. Treated plants were held in a holding room for three days at approximately 25° C. and 40% relative humidity (RH) prior to grading. Evaluation was conducted by counting the number of live aphids per plant under a microscope. Insecticidal activity data, measured by using Abbott's correction formula, are presented in Table 2: Corrected % Control=100*(X−Y)/X • where X=No. of live aphids on solvent check plants • Y=No. of live aphids on treated plants

Consider `COc1ccc(NC(=S)N/N=C/c2ccc(-c3ncn(-c4ccc(OC(F)(F)F)cc4)n3)cc2)c(C)c1` [Compound 46], for which the mortality at 50 µg/cm2 in experiment [1] and in experiment [2] was 50 to 100% throughout. Also, the mortality at 200 ppm in experiment [3] is under 80%.

Take `COc1cc(C)c(NC(=S)N/N=C/c2ccc(-c3ncn(-c4ccc(OC(F)(F)C(F)(F)F)cc4)n3)cc2)c(C)c1` [Compound 128]: the mortality at 50 µg/cm2 in experiment [1] and in experiment [2] was 50 to 100% in each case. In addition, the mortality at 200 ppm in experiment [3] is under 80%.

Turning to `C=CCNC(=S)N/N=C/c1ccc(-c2ncn(-c3ccc(OC(F)(F)F)cc3)n2)cc1` [Compound 12], the mortality at 50 µg/cm2 in experiment [1] and in experiment [2] was 50 to 100% in each case. For the same molecule, the mortality at 200 ppm in experiment [3] is under 80%.

For `CNC(=S)N/N=C/c1ccc(-c2ncn(-c3ccc(OC(F)(F)F)cc3)n2)cc1` [Compound 13], the mortality at 50 µg/cm2 in experiment [1] and in experiment [2] was 50 to 100% each time. For the same molecule, the mortality at 200 ppm in experiment [3] was under 80%.

`Cc1cccc(Cl)c1NC(=S)N/N=C/c1ccc(-c2ncn(-c3ccc(OC(F)(F)F)cc3)n2)cc1` [Compound 65]: the mortality at 50 µg/cm2 in experiment [1] and in experiment [2] was 50 to 100% in each case. Further, the mortality at 200 ppm in experiment [3] is under 80%.

`O=C(N/N=C/c1ccc(-c2ncn(-c3ccc(OC(F)(F)F)cc3)n2)cc1)Nc1ccc(F)cc1` [Compound 35]: the mortality at 50 µg/cm2 in experiment [1] and in experiment [2] was under 50% in each case. Also, in experiment [3], the mortality at 200 ppm is under 80%.

Turning to `CCOc1ccc(NC(=S)N/N=C/c2ccc(-c3ncn(-c4ccc(OC(F)(F)F)cc4)n3)cc2)cc1` [Compound 58], the mortality at 50 µg/cm2 in experiment [1] and in experiment [2] was 50 to 100% in each case. Moreover, the mortality at 200 ppm in experiment [3] is under 80%.

As to `FC(F)(F)Oc1ccc(-n2cnc(-c3ccc(/C=N/NC(=S)NCCOc4ccccn4)cc3)n2)cc1` [Compound 17], the mortality at 50 µg/cm2 in experiment [1] and in experiment [2] was 50 to 100% each time. In addition, the mortality at 200 ppm in experiment [3] is under 80%.

As to `COc1ccc(NC(=S)N/N=C(\C)c2ccc(-c3ncn(-c4ccc(OC(F)(F)F)cc4)n3)cc2)c(C)c1` [Compound 109], the mortality at 50 µg/cm2 in experiment [1] and in experiment [2] was 50 to 100% throughout. Besides, the mortality at 200 ppm in experiment [3] was under 80%.

On to `CN(C)c1cccc(NC(=S)N/N=C/c2ccc(-c3ncn(-c4ccc(OC(F)(F)F)cc4)n3)cc2)c1` [Compound 2, N-(3-(dimethylamino)phenyl)-2-(4-(1-(4-(trifluoromethoxy)phenyl)-1H-1,2,4-triazol-3-yl)benzylidene)hydrazinecarbothioamide], for which the mortality at 50 µg/cm2 in experiment [1] and in experiment [2] was 50 to 100% throughout. In addition, in experiment [3], the mortality at 200 ppm was under 80%.

For `FC(F)(F)Oc1ccc(-n2cnc(-c3ccc(/C=N/NC(=S)Nc4ccc(C(F)(F)F)cc4)cc3)n2)cc1` [Compound 32], the mortality at 50 µg/cm2 in experiment [1] and in experiment [2] was under 50% in each case. Besides, the mortality at 200 ppm in experiment [3] is under 80%.

As to `FC(F)(F)Oc1ccc(-n2cnc(-c3ccc(/C=N/NC(=S)NCCN4CCOCC4)cc3)n2)cc1` [Compound 16], the mortality at 50 µg/cm2 in experiment [1] and in experiment [2] was 50 to 100% throughout. Besides, the mortality at 200 ppm in experiment [3] was under 80%.

`CN(C)c1ccccc1CNC(=S)N/N=C/c1ccc(-c2ncn(-c3ccc(OC(F)(F)F)cc3)n2)cc1` [Compound 39]: the mortality at 50 µg/cm2 in experiment [1] and in experiment [2] was 50 to 100% throughout. The mortality at 200 ppm in experiment [3] was under 80%.

For `CC(=O)Nc1ccc(NC(=S)N/N=C/c2ccc(-c3ncn(-c4ccc(OC(F)(F)F)cc4)n3)cc2)cc1` [Compound 41], the mortality at 50 µg/cm2 in experiment [1] and in experiment [2] was 50 to 100% each time. Also, the mortality at 200 ppm in experiment [3] is under 80%.

Turning to `CN(C)CCCNC(=S)N/N=C/c1ccc(-c2ncn(-c3ccc(OC(F)(F)F)cc3)n2)cc1` [Compound 19], the mortality at 50 µg/cm2 in experiment [1] and in experiment [2] was under 50% in each case. The mortality at 200 ppm in experiment [3] was under 80%.

For `O=C(NC(=S)N/N=C/c1ccc(-c2ncn(-c3ccc(OC(F)(F)F)cc3)n2)cc1)c1ccc([N+](=O)[O-])cc1` [Compound 31], the mortality at 50 µg/cm2 in experiment [1] and in experiment [2] was under 50% in each case. Besides, the mortality at 200 ppm in experiment [3] is under 80%.

As to `FC(F)(F)Oc1ccc(-n2cnc(-c3ccc(/C=N/NC(=S)NC4CC4)cc3)n2)cc1` [Compound 23], the mortality at 50 µg/cm2 in experiment [1] and in experiment [2] was 50 to 100% in each case. For the same molecule, the mortality at 200 ppm in experiment [3] is under 80%.

As to `CC(=O)c1ccc(NC(=S)N/N=C/c2ccc(-c3ncn(-c4ccc(OC(F)(F)F)cc4)n3)cc2)cc1` [Compound 33], the mortality at 50 µg/cm2 in experiment [1] and in experiment [2] was 50 to 100% in each case. In experiment [3], the mortality at 200 ppm is under 80%.

For the molecule `CNc1ccc(NC(=S)N/N=C/c2ccc(-c3ncn(-c4ccc(OC(F)(F)F)cc4)n3)cc2)cc1` [Compound 42], the mortality at 50 µg/cm2 in experiment [1] and in experiment [2] was 50 to 100% in each case. For the same molecule, the mortality at 200 ppm in experiment [3] was under 80%.

With `COc1cc(C)c(NC(=S)N/N=C/c2ccc(-c3ncn(-c4ccc(OC(F)(F)F)cc4)n3)cc2)c(C)n1` [Compound 129], the mortality at 50 µg/cm2 in experiment [1] and in experiment [2] was 50 to 100% throughout. For the same molecule, in experiment [3], the mortality at 200 ppm was under 80%.

For the molecule `FC(F)(F)Oc1ccc(-n2cnc(-c3ccc(/C=N/NC(=S)Nc4ccc(Cl)cc4)cc3)n2)cc1` [Compound 56], the mortality at 50 µg/cm2 in experiment [1] and in experiment [2] was 50 to 100% throughout. In experiment [3], the mortality at 200 ppm is under 80%.

For `Cc1ccccc1NC(=S)N/N=C/c1ccc(-c2ncn(-c3ccc(OC(F)(F)F)cc3)n2)cc1` [Compound 71], the mortality at 50 µg/cm2 in experiment [1] and in experiment [2] was 50 to 100% throughout. For the same molecule, the mortality at 200 ppm in experiment [3] was under 80%.

`FC(F)(F)Oc1ccc(-n2cnc(-c3ccc(/C=N/NC(=S)NCCc4ccccn4)cc3)n2)cc1` [Compound 6]: the mortality at 50 µg/cm2 in experiment [1] and in experiment [2] was 50 to 100% in each case. Moreover, the mortality at 200 ppm in experiment [3] was under 80%.

With `FC(F)(F)Oc1ccc(-n2cnc(-c3ccc(/C=N/NC(=S)Nc4c(Cl)cccc4Cl)cc3)c2)cc1` [Compound 68], the mortality at 50 µg/cm2 in experiment [1] and in experiment [2] was 50 to 100% in each case. In addition, in experiment [3], the mortality at 200 ppm was under 80%.

Turning to `CN(C)c1ncc(NC(=S)N/N=C/c2ccc(-c3ncn(-c4ccc(OC(F)(F)F)cc4)n3)cc2)cn1` [Compound 43], the mortality at 50 µg/cm2 in experiment [1] and in experiment [2] was 50 to 100% each time. Further, in experiment [3], the mortality at 200 ppm is under 80%.

On to `Fc1cccc(F)c1NC(=S)N/N=C/c1ccc(-c2ncn(-c3ccc(OC(F)(F)F)cc3)n2)cc1` [Compound 47], for which the mortality at 50 µg/cm2 in experiment [1] and in experiment [2] was 50 to 100% each time. Also, the mortality at 200 ppm in experiment [3] was under 80%.

Consider `Nc1ccc(NC(=S)N/N=C/c2ccc(-c3ncn(-c4ccc(OC(F)(F)F)cc4)n3)cc2)cc1` [Compound 81], for which the mortality at 50 µg/cm2 in experiment [1] and in experiment [2] was 50 to 100% in each case. The mortality at 200 ppm in experiment [3] was under 80%.

Turning to `FC(F)(F)c1ccc(-n2cnc(-c3ccc(/C=N/NC(=S)NCCc4ccccn4)cc3)n2)cc1` [Compound 5], the mortality at 50 µg/cm2 in experiment [1] and in experiment [2] was 50 to 100% throughout. In experiment [3], the mortality at 200 ppm was under 80%.

For the molecule `COc1cc(C)c(NC(=S)N/N=C(\C)c2ccc(-c3ncn(-c4ccc(OC(F)(F)F)cc4)n3)cc2)c(C)c1` [Compound 125], the mortality at 50 µg/cm2 in experiment [1] and in experiment [2] was 50 to 100% each time. Further, the mortality at 200 ppm in experiment [3] is under 80%.

With `FC(F)(F)Oc1ccc(-n2cnc(-c3ccc(/C=N/NC(=S)Nc4ccccc4OC(F)(F)F)cc3)n2)cc1` [Compound 66], the mortality at 50 µg/cm2 in experiment [1] and in experiment [2] was 50 to 100% throughout. Moreover, in experiment [3], the mortality at 200 ppm was under 80%.

Regarding `CCOC(=O)CNC(=S)N/N=C/c1ccc(-c2ncn(-c3ccc(OC(F)(F)F)cc3)n2)cc1` [Compound 30], the mortality at 50 µg/cm2 in experiment [1] and in experiment [2] was 50 to 100% each time. The mortality at 200 ppm in experiment [3] is under 80%.

As to `FC(F)(F)Oc1ccc(-n2cnc(-c3ccc(/C=N/NC(=S)Nc4ccccc4Cl)cc3)n2)cc1` [Compound 54], the mortality at 50 µg/cm2 in experiment [1] and in experiment [2] was under 50% in each case. Besides, the mortality at 200 ppm in experiment [3] was under 80%.

`CN(C)C(=S)N/N=C/c1ccc(-c2ncn(-c3ccc(OC(F)(F)F)cc3)n2)cc1` [Compound 11]: the mortality at 50 µg/cm2 in experiment [1] and in experiment [2] was 50 to 100% in each case. Besides, the mortality at 200 ppm in experiment [3] is under 80%.

`C/C(=N\NC(=S)Nc1c(C)cccc1C)c1ccc(-c2ncn(-c3ccc(OC(F)(F)F)cc3)n2)cc1` [Compound 126]: the mortality at 50 µg/cm2 in experiment [1] and in experiment [2] was 50 to 100% in each case. In addition, the mortality at 200 ppm in experiment [3] was under 80%.
